According to ChEMBL document CHEMBL1795236, “Design and synthesis of protein-protein interaction mimics as Plasmodium falciparum cysteine protease, falcipain-2 inhibitors” (Eur J Med Chem, 2011):
pKi: −log10 of the molar value. Active and inactive are the calls of the source. No cut-off for these calls is given here. Peptide text beside a SMILES is read from it.

Columns and labels:
[1] = test system: Plasmodium falciparum; assay: Antimalarial activity against Plasmodium falciparum infected in human RBC assessed as abnormal schizonts at 200 nM after 48 hrs by Giemsa staining based microscopy; format: functional, organism-based
[2] = test system: Plasmodium falciparum; assay: Antimalarial activity against Plasmodium falciparum infected in human RBC assessed as swollen food vacuole at early trophozoite stage at 200 nM after 48 hrs by Giemsa staining based microscopy; format: functional, organism-based
[3] = test system: Plasmodium falciparum; assay: Inhibition of Plasmodium falciparum recombinant falcipain 2 using fluorogenic ZFR-AMC substrate at 5 uM after 30 mins by fluorimetric assay
[4] = test system: Plasmodium falciparum; assay: Antimalarial activity against Plasmodium falciparum infected in human RBC assessed as clumps of malarial pigment at 200 nM after 48 hrs by Giemsa staining based microscopy; format: functional, organism-based
[5] = (§1) Inhibition of Plasmodium falciparum recombinant refolded falcipain 2 activity using ZFR-AMC as a substrate after 30 mins by fluorimetric assay
[6] = test system: Plasmodium falciparum; assay: as §1

Molecule	Activity [1]	Activity [2]	inhibition [3] [%]	Activity [4]	pKi [5]	inhibition [6]
CC[C@H](C)[C@H](NC(=O)CNC(=O)[C@H](CO)NC(=O)[C@@H](NC(=O)[C@H](CC(C)C)NC(=O)[C@H](CCC(N)=O)NC(=O)[C@H](CCCNC(=N)N)NC(=O)CCCNC(=O)[C@@H](NC(=O)[C@@H]1CCCN1C(=O)[C@H](C)NC(=O)CNC(=O)[C@H](CC(C)C)NC(=O)[C@H](CC(C)C)NC(=O)[C@@H](N)CCCNC(=N)N)C(C)C)C(C)C)C(N)=O (HELM PEPTIDE1{R.L.L.G.A.P.V.[O=C(CCCN[*:1])[*:2]].R.Q.L.V.S.G.I.[am]}$$$$V2.0)	Active	Active	57	Active	5.60	–
CC[C@H](C)[C@H](NC(=O)CNC(=O)[C@H](CO)NC(=O)[C@@H](NC(=O)[C@H](CC(C)C)NC(=O)[C@H](CCC(N)=O)NC(=O)[C@H](CCCNC(=N)N)NC(=O)CCCNC(=O)[C@@H](NC(=O)[C@@H]1CCCN1C(=O)[C@H](C)NC(=O)CNC(=O)[C@H](CC(C)C)NC(=O)[C@H](CC(C)C)NC(=O)[C@@H](N)CCCNC(=N)N)C(C)C)C(C)C)C(=O)NCCC(=O)NCCC(=O)N1CCC[C@H]1C(=O)N[C@@H](Cc1c[nH]c2ccccc12)C(N)=O (HELM PEPTIDE1{R.L.L.G.A.P.V.[O=C(CCCN[*:1])[*:2]].R.Q.L.V.S.G.I.[bAla].[bAla].P.W.[am]}$$$$V2.0)	Active	Active	49	Active	–	–
CC[C@H](C)[C@H](NC(=O)CNC(=O)[C@H](CO)NC(=O)[C@@H](NC(=O)[C@H](CC(C)C)NC(=O)[C@H](CCC(N)=O)NC(=O)[C@@H]1CSSC[C@H](NC(=O)[C@@H]2CCCN2C(=O)[C@H](C)NC(=O)CNC(=O)[C@H](CC(C)C)NC(=O)[C@H](CC(C)C)NC(=O)[C@@H](N)CCCNC(=N)N)C(=O)NCCCC(=O)N1)C(C)C)C(N)=O (HELM PEPTIDE1{R.L.L.G.A.P.C.[O=C(CCCN[*:1])[*:2]].C.Q.L.V.S.G.I.[am]}$PEPTIDE1,PEPTIDE1,7:R3-9:R3$$$V2.0)	–	–	39	–	–	–
CC(=O)N[C@@H](CC(C)C)C(=O)N[C@@H](CC(C)C)C(=O)N[C@H](C=O)CCCNC(=N)N	–	–	–	–	–	Active
CC(C)C[C@H](NC(=O)[C@H]1O[C@@H]1C(=O)O)C(=O)NCCCCN=C(N)N	–	–	–	–	–	Active
CC[C@H](C)[C@H](NC(=O)CNC(=O)[C@H](CO)NC(=O)[C@@H](NC(=O)[C@H](CC(C)C)NC(=O)[C@H](CCC(N)=O)NC(=O)[C@H](CCCNC(=N)N)NC(=O)[C@H]1CC[C@@H](NC(=O)[C@@H](NC(=O)[C@@H]2CCCN2C(=O)[C@H](C)NC(=O)CNC(=O)[C@H](CC(C)C)NC(=O)[C@H](CC(C)C)NC(=O)[C@@H](N)CCCNC(=N)N)C(C)C)CC1)C(C)C)C(N)=O (HELM PEPTIDE1{R.L.L.G.A.P.V.[O=C([C@H]1CC[C@@H](N[*:1])CC1)[*:2]].R.Q.L.V.S.G.I.[am]}$$$$V2.0)	Active	Active	63	Active	5.70	–
H-RLLGAPV-NH2	Active	Active	5	Active	–	–
Ac-RQLVSGI-NH2	–	–	10	–	–	–
CC[C@H](C)[C@H](NC(=O)CNC(=O)[C@H](CO)NC(=O)[C@@H](NC(=O)[C@H](CC(C)C)NC(=O)[C@@H]1CSSC[C@H](NC(=O)[C@H](C)NC(=O)CNC(=O)[C@H](CC(C)C)NC(=O)[C@H](CC(C)C)NC(=O)[C@@H](N)CCCNC(=N)N)C(=O)NCCCC(=O)N1)C(C)C)C(N)=O (HELM PEPTIDE1{R.L.L.G.A.C.[O=C(CCCN[*:1])[*:2]].C.L.V.S.G.I.[am]}$PEPTIDE1,PEPTIDE1,6:R3-8:R3$$$V2.0)	–	–	39	–	–	–
CC[C@H](C)[C@H](NC(=O)CNC(=O)[C@H](CO)NC(=O)[C@@H](NC(=O)[C@H](CC(C)C)NC(=O)[C@H](CCC(N)=O)NC(=O)[C@H]1CC[C@@H](NC(=O)[C@@H]2CCCN2C(=O)[C@H](C)NC(=O)CNC(=O)[C@H](CC(C)C)NC(=O)[C@H](CC(C)C)NC(=O)[C@@H](N)CCCNC(=N)N)CC1)C(C)C)C(N)=O (HELM PEPTIDE1{R.L.L.G.A.P.[O=C([C@H]1CC[C@@H](N[*:1])CC1)[*:2]].Q.L.V.S.G.I.[am]}$$$$V2.0)	Active	Active	50	Active	–	–
CC[C@H](C)[C@H](NC(=O)CNC(=O)[C@H](CO)NC(=O)[C@@H](NC(=O)[C@H](CC(C)C)NC(=O)[C@H](CCC(N)=O)NC(=O)[C@@H]1CSSC[C@H](NC(=O)[C@@H]2CCCN2C(=O)[C@H](C)NC(=O)CNC(=O)[C@H](CC(C)C)NC(=O)[C@H](CC(C)C)NC(=O)[C@@H](N)CCCNC(=N)N)C(=O)NCCCC(=O)N1)C(C)C)C(=O)NCCC(=O)NCCC(=O)N1CCC[C@H]1C(=O)N[C@@H](Cc1c[nH]c2ccccc12)C(N)=O (HELM PEPTIDE1{R.L.L.G.A.P.C.[O=C(CCCN[*:1])[*:2]].C.Q.L.V.S.G.I.[bAla].[bAla].P.W.[am]}$PEPTIDE1,PEPTIDE1,7:R3-9:R3$$$V2.0)	–	–	39	–	–	–
CC[C@H](C)[C@H](NC(=O)CNC(=O)[C@H](CO)NC(=O)[C@@H](NC(=O)[C@H](CC(C)C)NC(=O)[C@H](CCC(N)=O)NC(=O)CCCNC(=O)[C@@H]1CCCN1C(=O)[C@H](C)NC(=O)CNC(=O)[C@H](CC(C)C)NC(=O)[C@H](CC(C)C)NC(=O)[C@@H](N)CCCNC(=N)N)C(C)C)C(N)=O (HELM PEPTIDE1{R.L.L.G.A.P.[O=C(CCCN[*:1])[*:2]].Q.L.V.S.G.I.[am]}$$$$V2.0)	Active	Active	44	Active	–	–
CC[C@H](C)[C@H](NC(=O)CNC(=O)[C@H](CO)NC(=O)[C@@H](NC(=O)[C@H](CC(C)C)NC(=O)[C@H](CCC(N)=O)NC(=O)CCCNC(=O)[C@@H]1CCCN1C(=O)[C@H](C)NC(=O)CNC(=O)[C@H](CC(C)C)NC(=O)[C@H](CC(C)C)NC(=O)[C@@H](N)CCCNC(=N)N)C(C)C)C(=O)NCCC(=O)NCCC(=O)N1CCC[C@H]1C(=O)N[C@@H](Cc1c[nH]c2ccccc12)C(N)=O (HELM PEPTIDE1{R.L.L.G.A.P.[O=C(CCCN[*:1])[*:2]].Q.L.V.S.G.I.[bAla].[bAla].P.W.[am]}$$$$V2.0)	–	–	32	–	–	–
CC[C@H](C)[C@H](NC(=O)CNC(=O)[C@H](CO)NC(=O)[C@@H](NC(=O)[C@H](CC(C)C)NC(=O)[C@H](CCC(N)=O)NC(=O)[C@H](CCCNC(=N)N)NC(=O)[C@H]1CC[C@@H](NC(=O)[C@@H](NC(=O)[C@@H]2CCCN2C(=O)[C@H](C)NC(=O)CNC(=O)[C@H](CC(C)C)NC(=O)[C@H](CC(C)C)NC(=O)[C@@H](N)CCCNC(=N)N)C(C)C)CC1)C(C)C)C(=O)NCCC(=O)NCCC(=O)N1CCC[C@H]1C(=O)N[C@@H](Cc1c[nH]c2ccccc12)C(N)=O (HELM PEPTIDE1{R.L.L.G.A.P.V.[O=C([C@H]1CC[C@@H](N[*:1])CC1)[*:2]].R.Q.L.V.S.G.I.[bAla].[bAla].P.W.[am]}$$$$V2.0)	Active	Active	60	Active	5.60	–
CC[C@H](C)[C@H](NC(=O)CNC(=O)[C@H](CO)NC(=O)[C@@H](NC(=O)[C@H](CC(C)C)NC(=O)[C@H](CCC(N)=O)NC(=O)[C@H]1CC[C@@H](NC(=O)[C@@H]2CCCN2C(=O)[C@H](C)NC(=O)CNC(=O)[C@H](CC(C)C)NC(=O)[C@H](CC(C)C)NC(=O)[C@@H](N)CCCNC(=N)N)CC1)C(C)C)C(=O)NCCC(=O)NCCC(=O)N1CCC[C@H]1C(=O)N[C@@H](Cc1c[nH]c2ccccc12)C(N)=O (HELM PEPTIDE1{R.L.L.G.A.P.[O=C([C@H]1CC[C@@H](N[*:1])CC1)[*:2]].Q.L.V.S.G.I.[bAla].[bAla].P.W.[am]}$$$$V2.0)	Active	Active	57	Active	–	–
